Laboratory results from patent US20060281791A1, “Methods of increasing proliferation of adult mammalian cardiomyocytes through p38 map kinase inhibition” (CHILDREN'S MEDICAL CENTER CORPORATION, priority 2005, published 2006).

Test system: adult cardiomyocytes
Assay: Ki67 staining of adult cardiomyocytes
Type: cell-based, rat
Conditions: 12 days of stimulation
Experimental: Animal experiments were performed in accordance with guidelines of Children's Hospital, Boston and UCLA. Ventricular cardiomyocytes from fetal (E19), 2-day-old (P2) and adult (250-350 g) Wistar rats (Charles River) were isolated as described with minor modifications (Engel et al. 1999; Engel et al. 2003). After digestion of fetal or neonatal hearts (0.14 mg/ml collagenase II (Invitrogen), 0.55 mg/ml pancreatin (Sigma)) cells were cultured in DMEM/F12 (GIBCO) containing 3 mM Na-pyruvate, 0.2% BSA, 0.1 mM ascorbic acid (Sigma), 0.5% Insulin-Transferrin-Selenium (100×), penicillin (100 U/ml), streptomycin (100 μg/ml), and 2 mM L-glutamine (GIBCO). […]
Staining was performed as described (Supplemental Table S3) (Engel et al. 1999; Engel et al. 2003). Immune complexes were detected with ALEXA 350, ALEXA 488 or ALEXA 594-conjugated secondary antibodies (1:200, Molecular Probes). […]
Eighteen to 40 hearts of 3 different litters were used for quantitative analyses of maximal areas. For immunofluorescence analyses 1,500 fetal or neonatal cardiomyocytes were counted. For adult cardiomyocyte analyses in vitro the following number of cells were counted: 500-2,000 for BrdU or Ki67, 9,000-25,000 for H3P, and 12,000-45,000 for aurora B. For in vivo MKK3bE and p38α knockout experiments 2 different litters were used. We counted 1,500-2,000 cells in each apex, left and right ventricle per heart. […]

Work on FGF1: growth factor FGF1 (R&D Systems) yielded a Ki67-positive adult cardiomyocytes of 1.7±0.5%.
